Assay results: US7981903B2, “2-[2-{phenylamino}-1H-pyrrolo[2,3-D]pyrimidin-4-yl)amino] benzamide derivatives as IGF-1R inhibitors for the treatment of cancer” (GlaxoSmithKline LLC, priority 2007, dated 2011)

How the values were obtained:
[1] = target: T1, NIH-3T3 cells overexpressing human IR (Homo sapiens, UniProt P06213); assay: IR cellular autophosphorylation (DELFIA); type: cell-based; conditions: 2 h compound, insulin 3 ug/ml for 15 minutes, IC50 category
T1 construct: expressed in transfected cells; host or cells: NIH-3T3 (mouse fibroblasts)
Procedure, shortened: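 Receptor autophosphorylation measured by DELFIA, capturing IGF-1R or IRβ and detecting with europium anti-pTyr, reported as percent of IGF-1- or insulin-stimulated signal. Compounds (30 uM to 1.5 nM) added 2 h before ligand, then 15 min stimulation (IGF-1 30 ng/ml or insulin 3 ug/ml).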

[2] = tested on: Colo205; assay: Inhibition of cell proliferation (CellTiter-Glo or InCell analyzer), Colo205; type: cell-based; conditions: Homo sapiens, COLO 205, 72 h / 3 days, values given as IC50 category
Procedure, shortened: In one

[3] = tested on: NCI-H929; assay: Inhibition of cell proliferation (CellTiter-Glo or InCell analyzer), NCI-H929; type: cell-based; conditions: Homo sapiens, 72 h / 3 days, values given as IC50 category
Procedure, shortened: In one

[4] = target: ALK (Homo sapiens, UniProt Q9UM73); assay: ALK enzyme assay (HTRF); type: biochemical; conditions: 0.25 nM ALK, 15.0 μM ATP, values given as pIC50 category
Procedure, shortened: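 Isolated ALK phosphorylates a biotinylated tyrosine peptide, 120 min at 20° C; anti-phosphotyrosine Eu-cryptate/streptavidin-XL665 HTRF read after 60 min with EDTA-containing detection mix.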

ALK, sequence (Q9UM73 19-1620): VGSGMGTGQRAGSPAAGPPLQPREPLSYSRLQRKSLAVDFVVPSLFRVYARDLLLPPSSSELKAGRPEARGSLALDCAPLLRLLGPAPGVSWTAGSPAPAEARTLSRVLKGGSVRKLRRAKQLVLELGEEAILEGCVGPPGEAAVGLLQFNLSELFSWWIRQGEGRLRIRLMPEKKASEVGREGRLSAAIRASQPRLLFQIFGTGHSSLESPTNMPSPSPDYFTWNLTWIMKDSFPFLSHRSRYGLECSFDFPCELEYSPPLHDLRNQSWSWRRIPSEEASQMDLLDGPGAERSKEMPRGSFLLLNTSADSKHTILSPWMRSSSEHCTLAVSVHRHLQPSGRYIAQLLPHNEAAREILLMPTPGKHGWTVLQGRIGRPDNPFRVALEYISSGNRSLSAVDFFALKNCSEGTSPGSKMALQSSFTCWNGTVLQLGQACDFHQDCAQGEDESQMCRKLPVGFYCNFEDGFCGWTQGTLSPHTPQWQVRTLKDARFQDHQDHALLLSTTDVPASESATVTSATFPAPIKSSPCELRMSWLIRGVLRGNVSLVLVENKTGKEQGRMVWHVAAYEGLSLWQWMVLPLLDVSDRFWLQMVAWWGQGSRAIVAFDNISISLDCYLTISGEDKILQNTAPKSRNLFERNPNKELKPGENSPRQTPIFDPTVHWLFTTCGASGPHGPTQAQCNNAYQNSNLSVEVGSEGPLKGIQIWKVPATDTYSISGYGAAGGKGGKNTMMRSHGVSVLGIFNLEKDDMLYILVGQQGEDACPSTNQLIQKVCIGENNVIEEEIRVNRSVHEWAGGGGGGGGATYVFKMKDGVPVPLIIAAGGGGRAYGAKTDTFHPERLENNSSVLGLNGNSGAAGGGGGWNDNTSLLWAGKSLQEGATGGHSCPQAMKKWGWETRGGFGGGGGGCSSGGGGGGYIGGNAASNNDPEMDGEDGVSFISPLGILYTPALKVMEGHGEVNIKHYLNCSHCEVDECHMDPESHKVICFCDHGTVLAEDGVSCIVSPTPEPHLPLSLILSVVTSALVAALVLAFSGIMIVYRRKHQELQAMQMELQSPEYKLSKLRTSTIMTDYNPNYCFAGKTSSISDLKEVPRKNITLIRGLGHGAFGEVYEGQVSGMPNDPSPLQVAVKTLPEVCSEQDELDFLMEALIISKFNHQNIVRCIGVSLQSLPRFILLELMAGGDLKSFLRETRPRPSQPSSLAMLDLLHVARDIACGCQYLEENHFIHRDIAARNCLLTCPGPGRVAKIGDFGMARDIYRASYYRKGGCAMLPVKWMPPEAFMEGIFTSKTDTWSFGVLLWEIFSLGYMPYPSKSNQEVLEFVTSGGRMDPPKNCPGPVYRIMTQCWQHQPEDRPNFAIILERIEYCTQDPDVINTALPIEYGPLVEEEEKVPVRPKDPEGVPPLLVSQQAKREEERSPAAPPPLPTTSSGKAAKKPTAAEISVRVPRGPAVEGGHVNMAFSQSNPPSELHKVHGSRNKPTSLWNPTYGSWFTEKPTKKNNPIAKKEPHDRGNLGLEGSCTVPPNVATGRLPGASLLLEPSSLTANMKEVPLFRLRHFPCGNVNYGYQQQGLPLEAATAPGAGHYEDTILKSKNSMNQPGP
T1 sequence (P06213 28-1382): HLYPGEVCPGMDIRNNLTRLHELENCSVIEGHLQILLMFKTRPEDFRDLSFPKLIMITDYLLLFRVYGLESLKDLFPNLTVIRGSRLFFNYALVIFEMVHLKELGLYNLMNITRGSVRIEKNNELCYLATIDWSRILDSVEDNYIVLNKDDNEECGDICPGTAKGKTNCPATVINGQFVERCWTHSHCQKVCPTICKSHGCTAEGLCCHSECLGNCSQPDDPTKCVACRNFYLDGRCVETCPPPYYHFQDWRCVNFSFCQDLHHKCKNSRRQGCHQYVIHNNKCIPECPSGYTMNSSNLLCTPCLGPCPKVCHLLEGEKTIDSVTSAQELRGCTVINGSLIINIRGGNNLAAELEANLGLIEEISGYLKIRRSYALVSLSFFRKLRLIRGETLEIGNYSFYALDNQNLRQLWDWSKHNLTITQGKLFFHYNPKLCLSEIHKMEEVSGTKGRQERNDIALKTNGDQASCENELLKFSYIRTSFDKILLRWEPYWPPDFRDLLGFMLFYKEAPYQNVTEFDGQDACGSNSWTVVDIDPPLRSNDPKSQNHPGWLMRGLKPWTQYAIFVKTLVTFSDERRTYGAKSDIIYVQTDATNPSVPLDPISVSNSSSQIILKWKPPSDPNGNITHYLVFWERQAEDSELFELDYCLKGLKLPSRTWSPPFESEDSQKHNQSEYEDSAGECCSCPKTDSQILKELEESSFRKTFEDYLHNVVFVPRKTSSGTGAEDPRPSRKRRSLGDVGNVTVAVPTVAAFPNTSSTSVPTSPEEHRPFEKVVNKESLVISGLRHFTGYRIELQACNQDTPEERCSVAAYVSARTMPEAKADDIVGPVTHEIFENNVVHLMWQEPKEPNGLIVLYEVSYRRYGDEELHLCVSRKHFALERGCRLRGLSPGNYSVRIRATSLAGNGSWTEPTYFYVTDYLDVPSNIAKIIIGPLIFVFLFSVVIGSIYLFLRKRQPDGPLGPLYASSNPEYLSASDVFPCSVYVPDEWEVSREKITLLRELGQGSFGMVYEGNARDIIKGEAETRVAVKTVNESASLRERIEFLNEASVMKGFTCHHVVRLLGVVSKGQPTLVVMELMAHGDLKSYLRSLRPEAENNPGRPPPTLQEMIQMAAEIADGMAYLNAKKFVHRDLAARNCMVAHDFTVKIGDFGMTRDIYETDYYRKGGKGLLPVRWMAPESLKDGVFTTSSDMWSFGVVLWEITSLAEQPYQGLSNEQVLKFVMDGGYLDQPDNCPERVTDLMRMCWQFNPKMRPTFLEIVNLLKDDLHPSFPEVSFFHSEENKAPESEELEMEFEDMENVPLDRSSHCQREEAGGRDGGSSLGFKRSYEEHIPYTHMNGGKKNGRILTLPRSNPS

IC50 [1] [nM]	IC50 [2] [nM]	IC50 [3] [nM]	IC50 [4] [nM]	SMILES
< 100	250 to 1000	< 250	0.251 to 1	COc1cc(OCCN2CCN(C)CC2)ccc1Nc1nc(Nc2cccc(F)c2C(N)=O)c2cc[nH]c2n1 [Example 203, 2-fluoro-6-({2-[(2-(methyloxy)-4-{[2-(4-methyl-1-piperazinyl)ethyl]oxy}phenyl)amino]-1H-pyrrolo[2,3-d]pyrimidin-4-yl}amino)benzamide]
100 to 500	250 to 1000	< 250	0.251 to 1	COc1cc(N2CCCN(C(C)C)CC2)ccc1Nc1nc(Nc2cccc(F)c2C(N)=O)c2cc[nH]c2n1 [Example 208, 2-fluoro-6-[(2-{[4-[4-(1-methylethyl)hexahydro-1H-1,4-diazepin-1-yl]-2-(methyloxy)phenyl]amino}-1H-pyrrolo[2,3-d]pyrimidin-4-yl)amino]benzamide]
100 to 500	250 to 1000	250 to 1000	0.251 to 1	CCNC(=O)c1c(F)cc(F)cc1Nc1nc(Nc2cc3c(cc2OC)CCN3C(=O)CN(C)C)nc2[nH]ccc12 [Example 151, 2-[(2-{[1-(N,N-dimethylglycyl)-5-(methyloxy)-2,3-dihydro-1H-indol-6-yl]amino}-1H-pyrrolo[2,3-d]pyrimidin-4-yl)amino]-N-ethyl-4,6-difluorobenzamide]
100 to 500	250 to 1000	< 250	5.01 to 200	CNC(=O)c1c(F)cccc1Nc1nc(Nc2cc3c(cc2OC)CCCN3C(=O)[C@@H]2CCCN2C)nc2[nH]ccc12 [Example 202, 2-fluoro-N-methyl-6-[(2-{[6-(methyloxy)-1-(1-methyl-L-prolyl)-1,2,3,4-tetrahydro-7-quinolinyl]amino}-1H-pyrrolo[2,3-d]pyrimidin-4-yl)amino]benzamide]
< 100	< 250	< 250	0.251 to 1	COc1cc2c(cc1Nc1nc(Nc3cccc(F)c3C(N)=O)c3cc[nH]c3n1)N(C(=O)CN(C)C)CCC2 [Example 210, 2-[(2-{[1-(N,N-dimethylglycyl)-6-(methyloxy)-1,2,3,4-tetrahydro-7-quinolinyl]amino}-1H-pyrrolo[2,3-d]pyrimidin-4-yl)amino]-6-fluorobenzamide]
< 100	250 to 1000	< 250	1.26 to 3.98	CNC(=O)c1c(F)cc(F)cc1Nc1nc(Nc2cc3c(cc2OC)CCCN3C(=O)CN2CCCC2)nc2[nH]ccc12 [Example 221, 2,4-difluoro-N-methyl-6-[(2-{[6-(methyloxy)-1-(1-pyrrolidinylacetyl)-1,2,3,4-tetrahydro-7-quinolinyl]amino}-1H-pyrrolo[2,3-d]pyrimidin-4-yl)amino]benzamide]
100 to 500	> 1000	250 to 1000	5.01 to 200	COCC(=O)N1CCc2cc(OC)c(Nc3nc(Nc4cccc(F)c4C(N)=O)c4cc[nH]c4n3)cc21 [Example 149, 2-fluoro-6-{[2-({5-(methyloxy)-1-[(methyloxy)acetyl]-2,3-dihydro-1H-indol-6-yl}amino)-1H-pyrrolo[2,3-d]pyrimidin-4-yl]amino}benzamide]
> 500	250 to 1000	> 1000	5.01 to 200	COc1cc2c(cc1Nc1nc(Nc3cccc(F)c3C(N)=O)c3cc[nH]c3n1)NCC2 [Example 140, 2-fluoro-6-[(2-{[5-(methyloxy)-2,3-dihydro-1H-indol-6-yl]amino}-1H-pyrrolo[2,3-d]pyrimidin-4-yl)amino]benzamide]
100 to 500	250 to 1000	< 250	1.26 to 3.98	COc1cc2c(cc1Nc1nc(Nc3cccc(F)c3C(N)=O)c3cc[nH]c3n1)CN(C)CC2 [Example 121, 2-fluoro-6-[(2-{[2-methyl-6-(methyloxy)-1,2,3,4-tetrahydro-7-isoquinolinyl]amino}-1H-pyrrolo[2,3-d]pyrimidin-4-yl)amino]benzamide]
> 500	> 1000	250 to 1000	5.01 to 200	CNC(=O)c1c(F)cccc1Nc1nc(Nc2cc3c(cc2OC)CCN3C(=O)COC)nc2[nH]ccc12 [Example 150, 2-fluoro-N-methyl-6-{[2-({5-(methyloxy)-1-[(methyloxy)acetyl]-2,3-dihydro-1H-indol-6-yl}amino)-1H-pyrrolo[2,3-d]pyrimidin-4-yl]amino}benzamide]
< 100	< 250	< 250	5.01 to 200	CCN(C)CC(=O)N1CCCc2cc(OC)c(Nc3nc(Nc4cccc(F)c4C(=O)NC)c4cc[nH]c4n3)cc21 [Example 132, 2-[(2{-[1-(N-ethyl-N-methylglycyl)-6-(methyloxy)-1,2,3,4-tetrahydro-7-quinolinyl]amino}-1H-pyrrolo[2,3-d]pyrimidin-4-yl)amino]-6-fluoro-N-methylbenzamide]
> 500	< 250	< 250	0.251 to 1	COc1cc(N2CCN(S(C)(=O)=O)CC2)ccc1Nc1nc(Nc2cccc(F)c2C(N)=O)c2cc[nH]c2n1 [Example 204, 2-fluoro-6-{[2-({2-(methyloxy)-4-[4-(methylsulfonyl)-1-piperazinyl]phenyl}amino)-1H-pyrrolo[2,3-d]pyrimidin-4-yl]amino}benzamide]
> 500	> 1000	250 to 1000	5.01 to 200	COc1cc2c(cc1Nc1nc(Nc3cccc(F)c3C(N)=O)c3cc[nH]c3n1)N(C(=O)N(C)C)CC2 [Example 146, 6-[(4-{[2-(aminocarbonyl)-3-fluorophenyl]amino}-1H-pyrrolo[2,3-d]pyrimidin-2-yl)amino]-N,N-dimethyl-5-(methyloxy)-2,3-dihydro-1H-indole-1-carboxamide]
> 500	> 1000	> 1000	5.01 to 200	COc1cc2c(cc1Nc1nc(Nc3cccc(F)c3C(N)=O)c3cc[nH]c3n1)N(C(=O)Cn1ccnc1)CC2 [Example 145, 2-fluoro-6-[(2-{[1-(1H-imidazol-1-ylacetyl)-5-(methyloxy)-2,3-dihydro-1H-indol-6-yl]amino}-1H-pyrrolo[2,3-d]pyrimidin-4-yl)amino]benzamide]
100 to 500	> 1000	< 250	1.26 to 3.98	COc1cc2c(cc1Nc1nc(Nc3cccc(F)c3C(N)=O)c3cc[nH]c3n1)N(C(=O)CCN1CCOCC1)CC2 [Example 187, 2-fluoro-6-{[2-({5-(methyloxy)-1-[3-(4-morpholinyl)propanoyl]-2,3-dihydro-1H-indol-6-yl}amino)-1H-pyrrolo[2,3-d]pyrimidin-4-yl]amino}benzamide]
